Laboratory results reported in patent EP3345917A1, “ANTIPROTOZOAL COMPOUNDS” (Bacoba AG, priority 2017, dated 2018).
Non-standard residues stand in square brackets, D forms with d. Residues, ends and D or L forms follow the SMILES beside them. *: point of attachment. Hexenoyl(2E,4S-Me) = CC[C@H](C)/C=C/C(=O)*; Leu(3R-OH) = CC(C)[C@@H](O)[C@H](N)C(=O)O; NH((S)CH(Me)CH2NMe2) = C[C@@H](CN(C)C)N*; Pro(4S-Me) = C[C@@H]1CN[C@H](C(=O)O)C1; Gly(octyl) = CCCCCCCC[C@H](N)C(=O)O; Oxazole4CO(2-Me) = Cc1nc(C(=O)*)co1; Benzoyl(4-F) = O=C(c1ccc(F)cc1)*; hCha = N[C@@H](CCC1CCCCC1)C(=O)O; Nva(5-OH) = N[C@@H](CCCO)C(=O)O; Pyrrole2CO = O=C(c1ccc[nH]1)*; X17 = C[C@@H](CN1CCOCC1)N*; Hexanoyl = CCCCCC(=O)*; Aib = CC(C)(N)C(=O)O; X12 = CCC/C=C/C(=O)*; βAla = NCCC(=O)O

Experiments:
[1] = test system: intracellular Leishmania donovani (L.don. InMac); assay: Intracellular Leishmania donovani assay (L.don. InMac); format: cell-based; conditions: In vitro inhibition
From the text: (§1) Tests were done in triplicate.

[2] = Cytotoxicity assay on L6-cells (Alamar Blue); conditions: rat, Cytotox L6, Cytotoxicity against rat myoblast cells (L6)
[3] = test system: Axenically grown Leishmania donovani amastigotes (strain MHOM/ET/67/L82); assay: Axenic Leishmania donovani amastigote resazurin assay; format: cell-based; conditions: In vitro inhibition, read-out: L.don. ax
Method in brief: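 IC50 values derive from resazurin fluorescence (ex 536 nm, em 588 nm), expressed relative to the negative control, after 2-4 hours of plate development. Axenic amastigotes of strain MHOM/ET/67/L82 were used; each test run in triplicate.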

[4] = test system: Trypanosoma cruzi trypomastigote forms (Tulahuen strain); assay: Intracellular Trypanosoma cruzi assay in L6-cells, beta-galactosidase/CPRG readout; format: cell-based; conditions: In vitro inhibition, read-out: T.cruzi.
Method in brief: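 Readout was β-galactosidase cleavage of CPRG, read photometrically at 540 nm after 2–6 h colour development, giving IC50 values. Parasites: LacZ-expressing Tulahuen C2C4 strain grown in rat L6 myoblasts; run in triplicate.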

Plasmodium falciparum = assay: 3H-hypoxanthine incorporation assay against Plasmodium falciparum; format: cell-based; conditions: In vitro inhibition, read-out: P.falc NF5
Experimental: as §1
IC50 values were calculated by linear interpolation.

[5] = test system: Trypanosoma brucei rhodesiense (STIB 900 strain); assay: Alamar Blue assay against Trypanosoma brucei rhodesiense grown in axenic medium; format: cell-based; conditions: In vitro inhibition, read-out: T.b.rhod.
Method in brief: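 Alamar Blue-based IC50 determination, in triplicate, on axenically grown STIB 900 trypanosomes. Melarsoprol included as reference.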

| SMILES | IC50 [1] [nM] | IC50 at 70 h [2] [nM] | IC50 [3] [nM] | IC50 [4] [nM] | IC50 (Plasmodium falciparum) [nM] | IC50 [5] [nM] |
| --- | --- | --- | --- | --- | --- | --- |
| CCCCCCCC[C@H](NC(=O)[C@@H]1CCCN1C(=O)/C=C/[C@@H](C)CC)C(=O)N[C@H](C(=O)NC(C)(C)C(=O)N[C@@H](CC(C)C)C(=O)N[C@@H](CC(C)C)C(=O)NC(C)(C)C(=O)NC(C)(C)C(=O)NCCC(=O)N[C@@H](C)CN(C)C)[C@H](O)C(C)C [Compound 5488, (2S)-N-[(1S,2R)-1-[(1-{[(1S)-1-{[(1S)-1-{[1-({1-[(2-{[(2S)-1-(dimethylamino)propan-2-yl]carbamoyl}ethyl)carbamoyl]-1-methylethyl}carbamoyl)-1-methylethyl]carbamoyl}-3-methylbutyl]carbamoyl}-3-methylbutyl]carbamoyl}-1-methylethyl)carbamoyl]-2-hydroxy-3-methylbutyl]-2-{[(2S)-1-[(2E,4S)-4-methylhex-2-enoyl]pyrrolidin-2-yl]formamido}decanamide] ({Hexenoyl(2E,4S-Me)}-P[Gly(octyl)][Leu(3R-OH)][Aib]LL[Aib][Aib][βAla]-{NH((S)CH(Me)CH2NMe2)}) | 20.2 | 666 | 0.6 | 33.6 | 2.6 | 2 |
| CCCCCCCC[C@H](NC(=O)[C@@H]1C[C@H](C)CN1C(=O)/C=C/[C@@H](C)CC)C(=O)N[C@H](C(=O)NC(C)(C)C(=O)N[C@@H](CC(C)C)C(=O)N[C@@H](CC(C)C)C(=O)NC(C)(C)C(=O)NC(C)(C)C(=O)NCCC(=O)N[C@@H](C)CN(C)C)[C@H](O)C(C)C [Compound 5492, (2S)-N-[(1S,2R)-1-[(1-{[(1S)-1-{[(1S)-1-{[1-({1-[(2-{[(2S)-1-(dimethylamino)propan-2-yl]carbamoyl}ethyl)carbamoyl]-1-methylethyl}carbamoyl)-1-methylethyl]carbamoyl}-3-methylbutyl]carbamoyl}-3-methylbutyl]carbamoyl}-1-methylethyl)carbamoyl]-2-hydroxy-3-methylbutyl]-2-{[(2S,4S)-4-methyl-1-[(2E,4S)-4-methylhex-2-enoyl]pyrrolidin-2-yl]formamido}decanamide] ({Hexenoyl(2E,4S-Me)}-[Pro(4S-Me)][Gly(octyl)][Leu(3R-OH)][Aib]LL[Aib][Aib][βAla]-{NH((S)CH(Me)CH2NMe2)}) | 36.6 | 147 | 2 | 113 | 4.7 | 5.5 |
| CC[C@H](C)/C=C/C(=O)N1C[C@@H](C)C[C@H]1C(=O)N[C@@H](CCCO)C(=O)N[C@H](C(=O)NC(C)(C)C(=O)N[C@@H](CC(C)C)C(=O)N[C@@H](CC(C)C)C(=O)NC(C)(C)C(=O)NC(C)(C)C(=O)NCCC(=O)N[C@@H](C)CN(C)C)[C@H](O)C(C)C [Compound 5496, (2S,3R)-N-(1-{[(1S)-1-{[(1S)-1-{[1-({1-[(2-{[(2S)-1-(dimethylamino)propan-2-yl]carbamoyl}ethyl)carbamoyl]-1-methylethyl}carbamoyl)-1-methylethyl]carbamoyl}-3-methylbutyl]carbamoyl}-3-methylbutyl]carbamoyl}-1-methylethyl)-3-hydroxy-2-[(2S)-5-hydroxy-2-{[(2S,4S)-4-methyl-1-[(2E,4S)-4-methylhex-2-enoyl]pyrrolidin-2-yl]formamido}pentanamido]-4-methylpentanamide] ({Hexenoyl(2E,4S-Me)}-[Pro(4S-Me)][Nva(5-OH)][Leu(3R-OH)][Aib]LL[Aib][Aib][βAla]-{NH((S)CH(Me)CH2NMe2)}) | 2680 | 5220 | 467 | 5110 | 660 | 6.2 |
| CCC/C=C/C(=O)N1CCC[C@H]1C(=O)N[C@@H](CCCCCCCC)C(=O)N[C@H](C(=O)NC(C)(C)C(=O)N[C@@H](CC(C)C)C(=O)N[C@@H](CC(C)C)C(=O)NC(C)(C)C(=O)NC(C)(C)C(=O)NCCC(=O)N[C@@H](C)CN(C)C)[C@H](O)C(C)C [Compound 5514, (2S)-N-[(1S,2R)-1-[(1-{[(1S)-1-{[(1S)-1-{[1-({1-[(2-{[(2S)-1-(dimethylamino)propan-2-yl]carbamoyl}ethyl)carbamoyl]-1-methylethyl}carbamoyl)-1-methylethyl]carbamoyl}-3-methylbutyl]carbamoyl}-3-methylbutyl]carbamoyl}-1-methylethyl)carbamoyl]-2-hydroxy-3-methylbutyl]-2-{[(2S)-1-[(2E)-hex-2-enoyl]pyrrolidin-2-yl]formamido}decanamide] (X12-P[Gly(octyl)][Leu(3R-OH)][Aib]LL[Aib][Aib][βAla]-{NH((S)CH(Me)CH2NMe2)}) | 96.8 | 316 | 0.4 | 20.1 | 0.8 | 0.2 |
| CCCCCCCC[C@H](NC(=O)[C@@H]1CCCN1C(=O)CCCCC)C(=O)N[C@H](C(=O)NC(C)(C)C(=O)N[C@@H](CC(C)C)C(=O)N[C@@H](CC(C)C)C(=O)NC(C)(C)C(=O)NC(C)(C)C(=O)NCCC(=O)N[C@@H](C)CN(C)C)[C@H](O)C(C)C [Compound 5517, (2S)-N-[(1S,2R)-1-[(1-{[(1S)-1-{[(1S)-1-{[1-({1-[(2-{[(2S)-1-(dimethylamino)propan-2-yl]carbamoyl}ethyl)carbamoyl]-1-methylethyl}carbamoyl)-1-methylethyl]carbamoyl}-3-methylbutyl]carbamoyl}-3-methylbutyl]carbamoyl}-1-methylethyl)carbamoyl]-2-hydroxy-3-methylbutyl]-2-{[(2S)-1-hexanoylpyrrolidin-2-yl]formamido}decanamide] (Hexanoyl-P[Gly(octyl)][Leu(3R-OH)][Aib]LL[Aib][Aib][βAla]-{NH((S)CH(Me)CH2NMe2)}) | 142 | 338 | 0.9 | 45.3 | 1.1 | 0.1 |
| CCCCCCCC[C@H](NC(=O)[C@@H](NC(=O)[C@@H]1CCCN1C(=O)/C=C/[C@@H](C)CC)[C@H](O)C(C)C)C(=O)NC(C)(C)C(=O)N[C@@H](CC(C)C)C(=O)N[C@@H](CC(C)C)C(=O)NC(C)(C)C(=O)NC(C)(C)C(=O)NCCC(=O)N[C@@H](C)CN(C)C [Compound 5560, (2S)-N-(1-{[(1S)-1-{[(1S)-1-{[1-({1-[(2-{[(2S)-1-(dimethylamino)propan-2-yl]carbamoyl}ethyl)carbamoyl]-1-methylethyl}carbamoyl)-1-methylethyl]carbamoyl}-3-methylbutyl]carbamoyl}-3-methylbutyl]carbamoyl}-1-methylethyl)-2-[(2S,3R)-3-hydroxy-4-methyl-2-{[(2S)-1-[(2E,4S)-4-methylhex-2-enoyl]pyrrolidin-2-yl]formamido}pentanamido]decanamide] ({Hexenoyl(2E,4S-Me)}-P[Leu(3R-OH)][Gly(octyl)][Aib]LL[Aib][Aib][βAla]-{NH((S)CH(Me)CH2NMe2)}) | 25.4 | 791 | 0.8 | 34.5 | 1.1 | 0.2 |
| CCCCCCCC[C@H](NC(=O)[C@@H]1CCCN1C(=O)c1ccc[nH]1)C(=O)N[C@@H](CC(C)C)C(=O)NC(C)(C)C(=O)N[C@@H](CC(C)C)C(=O)N[C@@H](CC(C)C)C(=O)NC(C)(C)C(=O)NC(C)(C)C(=O)NCCC(=O)N[C@@H](C)CN(C)C [Compound 5939, (2S)-N-[(1S)-1-[(1-{[(1S)-1-{[(1S)-1-{[1-({1-[(2-{[(2S)-1-(dimethylamino)propan-2-yl]carbamoyl}ethyl)carbamoyl]-1-methylethyl}carbamoyl)-1-methylethyl]carbamoyl}-3-methylbutyl]carbamoyl}-3-methylbutyl]carbamoyl}-1-methylethyl)carbamoyl]-3-methylbutyl]-2-{[(2S)-1-(1H-pyrrole-2-carbonyl)pyrrolidm-2-yl]formamido}decanamide] (Pyrrole2CO-P[Gly(octyl)]L[Aib]LL[Aib][Aib][βAla]-{NH((S)CH(Me)CH2NMe2)}) | 209 |  | 36000 | 42500 | 36200 | 0.1 |
| Cc1nc(C(=O)N2CCC[C@H]2C(=O)N[C@@H](CCC2CCCCC2)C(=O)N[C@@H](CC(C)C)C(=O)NC(C)(C)C(=O)N[C@@H](CC(C)C)C(=O)N[C@@H](CC(C)C)C(=O)NC(C)(C)C(=O)NC(C)(C)C(=O)NCCC(=O)N[C@@H](C)CN2CCOCC2)co1 [Compound 6026] ({Oxazole4CO(2-Me)}-P[hCha]L[Aib]LL[Aib][Aib][βAla]-X17) | 50.7 |  | 44700 | 422 | 38 | 41400 |
| CC(C)C[C@H](NC(=O)[C@H](CCC1CCCCC1)NC(=O)[C@@H]1CCCN1C(=O)c1ccc(F)cc1)C(=O)NC(C)(C)C(=O)N[C@@H](CC(C)C)C(=O)N[C@@H](CC(C)C)C(=O)NC(C)(C)C(=O)NC(C)(C)C(=O)NCCC(=O)N[C@@H](C)CN1CCOCC1 [Compound 6028, (2S)-2-[(2S)-2-{2-[(2S)-2-[(2S)-4-cyclohexyl-2-{[(2S)-1-(4-fluorobenzoyl)pyrrolidin-2-yl]formamido}butanamido]-4-methylpentanamido]-2-methylpropanamido}-4-methylpentanamido]-4-methyl-N-[1-methyl-1-({1-methyl-1-[(2-{[(2S)-1-(morpholin-4-yl)propan-2-yl]carbamoyl}ethyl)carbamoyl]ethyl}carbamoyl)ethyl]pentanamide] ({Benzoyl(4-F)}-P[hCha]L[Aib]LL[Aib][Aib][βAla]-X17) | 418 |  | 12500 | 230 | 26.3 | 41900 |
